Measurements published in patent US11702417B2, “Compounds for improving mRNA splicing” (The General Hospital Corporation, priority 2015, dated 2023).
Like-named read-outs stand apart in the source and are kept apart here.

What was measured:
[1] = system: FD (familial dysautomonia) IKBKAP minigene, exon 20 inclusion, in HEK293T cells; assay: Primary splicing assay (FD IKBKAP minigene, Firefly/Renilla luciferase reporter in HEK293T); assay type: cell-based, human; conditions: for EC (maximum kinetin efficacy) / Emax: Homo sapiens, HEK-293T; for EC (maximum kinetin efficacy): HEK293T, read-out: ECk (compound concentration at which the maximum kinetin efficacy (200 μM) is reached)
[2] = system: IKBKAP splicing (exon 20 inclusion) in FD fibroblasts GM04663; assay: Secondary assay: IKBKAP splicing analysis by RT-PCR in FD fibroblasts GM04663; assay type: cell-based; conditions: Homo sapiens, FD fibroblasts GM04663, 24 hours of treatment, read-out: % exon Inclusion Normalized
[3] = system: IKBKAP exon 20 inclusion; assay: In vivo familial dysautonomia mouse model: splicing analysis in tissues; conditions: for inclusion of exon 20 in C57BI6-FD mouse tissues (FIGS. 1A-6): 10, 30 and 60 mg/kg/day, 8 days
Description: […] Every dosing group and the control group (vehicle) consisted of 6 mice. The mice were given food and water ad libitum, and changes in body weights were monitored on a daily basis. On the eighth day the mice were dosed for the last time and after 1 hour the mice were sacrificed and dissected. Plasma, liver, kidney, heart and brain were collected.
The following solutions were prepared daily: Compound (230) in 10% DMA/45% PEG 300/12% EtOH/33% sterile water; and Compound (270) in 10% DMA/45% PEG 300/12% EtOH/33% sterile water.
[…] Six transgenic mice were fed daily with 10% DMA/45% PEG 300/12% EtOH/33% sterile water solution for the same duration. The mice were given food and water ad libitum, and changes in body weights were monitored on a daily basis. On the eighth day the mice were dosed for the last time and after 1 hour were sacrificed and dissected. Plasma, lungs, muscle, liver, heart, brain, kidney, sciatic nerve, and trigeminal nerve were collected. Splicing was evaluating by RT-PCT and IKAP protein was evaluated using Western Blotting.

[4] = In vivo FD mouse model: presence of compound in plasma and brain; conditions: oral gavage eight days, 1 hour after last dose
Description: Compound (100) was administered by oral gavage for eight days at 60 mg/kg/day, 30 mg/kg/day and 10 mg/kg/day to the mouse transgenic familial dysautonomia (FD) model. Every dosing group and the control group (vehicle) consisted of 6 mice. The mice were given food and water ad libitum, and changes in body weights were monitored on a daily basis. On the eighth day the mice were dosed for the last time and after 1 hour the mice were sacrificed and dissected. Plasma, liver, kidney, heart and brain were collected.

[5] = system: IKBKAP splicing; conditions: mice, oral, 400 mg/kg/day for 7 days; cited from earlier work
[6] = system: IKAP protein; assay: In vivo FD mouse model: IKAP protein in liver by western blot; conditions: 400 mg/kg/day
Description: Six transgenic mice were fed daily with 10% DMA/45% PEG 300/12% EtOH/33% sterile water solution for the same duration. The mice were given food and water ad libitum, and changes in body weights were monitored on a daily basis. On the eighth day the mice were dosed for the last time and after 1 hour were sacrificed and dissected. Plasma, lungs, muscle, liver, heart, brain, kidney, sciatic nerve, and trigeminal nerve were collected. Splicing was evaluating by RT-PCT and IKAP protein was evaluated using Western Blotting. Protein extracts were obtained by homogenizing liver or cell pellets in RIPA buffer (Tris-HCl 50 mM, pH 7.4; NaCl 150 mM; NP-40 1%; Sodium deoxycholate 0.5%; SDS 0.1%) containing protease inhibitor cocktail (Sigma), DTT (100 μM) and PMSF (100 μM). Insoluble debris were discarded after centrifugation and protein concentration was determined using Pierce® […] BCA Protein Assay Kit (Thermo Scientific). 50 μg of protein was separated on NuPage 4-12% Bis-Tris Gel (Invitrogen) and transferred into nitrocellulose membrane (Thermo Scientific). […]

[7] = system: normal IKBKAP mRNA in peripheral blood; conditions: human patients and carriers of familial dysautonomia, preliminary testing; cited from earlier work
[8] = Firefly/Renilla ratio, 24 hours of treatment
[9] = max efficacy in Primary Assay, Firefly/Renilla ratio, kinetin and DMSO as positive and negative controls, 24 hours of treatment, read-out: Emax (%)

Structure (SMILES) | EC (maximum kinetin efficacy) [1, 8] | Emax [1, 9] | activation at 0.08 µM [2] | activation at 0.8 µM [2] | further results
FC(F)(F)COc1nc2c(NCc3ccco3)nc(Cl)nc2[nH]1 [(270)] | 0.59 µM | 218% | 28.7% | 101% | inclusion of exon 20 in C57BI6-FD mouse tissues (FIGS. 1A-6) [3]: useful for improving inclusion of exon 20
Clc1nc(NCc2ccncc2)c2cc[nH]c2n1 [(100)] | 2.18 µM | 235% | 22.6% | 62.1% | presence of compound in brain [4]: evident in the brain; presence of compound in plasma [4]: presence of (100) in the plasma
FCCn1ncc2c(NCc3ccco3)nc(Cl)nc21 [Example 12, 6-Chloro-1-(2-fluoroethyl)-N-(furan-2-ylmethyl)-1H-pyrazolo[3,4-d]pyrimidin-4-amine] |  |  |  |  | melting point: 125 to 128 °C
Clc1nc(NCc2nccs2)c2cc[nH]c2n1 [(107)] |  |  | 25.6% | 93.2% | Emax ([1]; max efficacy, Firefly only, footnote c: Renilla interference/Firefly only, read-out: Emax (%) Firefly only): 184%; ECk, Firefly only ([1]; Renilla interference/Firefly only (footnote c)): 4.58 µM⁻¹
Clc1nc(NCc2ccco2)c2nc(OC3COC3)[nH]c2n1 [(269)] | 1.39 µM | 119% | 34.8% | 102% | 
FC(F)(F)COc1nc2c(NCc3nccs3)nc(Cl)nc2[nH]1 [(302)] | 1.42 µM | 176% | 23.3% | 90.8% | 
Clc1nc(NCc2nccs2)c2nc(OCc3cscn3)[nH]c2n1 [(348)] | 0.7 µM | 171% | 49% | 102% | 
OCCOc1nc2c(NCc3ccco3)nc(Cl)nc2[nH]1 [(275)] | 0.75 µM | 230% | 37.2% | 101% | 
COc1nc2c(NCc3nccs3)nc(Cl)nc2[nH]1 [(230)] | 1.5 µM | 216% | 22.3% | 70% | inclusion of exon 20 in C57BI6-FD mouse tissues (FIGS. 1A-6) [3]: useful for improving inclusion of exon 20
FC(F)COc1nc2c(NCc3ccncn3)nc(Cl)nc2[nH]1 [(349)] | 0.29 µM | 227% | 27.1% | 95.3% | 
c1coc(CNc2ncnc3nc[nH]c23)c1 [kinetin, N^6-furfuryladenine, reference compound] |  |  |  |  | IKBKAP splicing in vivo in certain tissues, including the brain [5]: improve IKBKAP splicing in vivo; level of the IKAP protein in liver [6]: no significant changes; activation at 200 µM ([2]; 200 μM (kinetin control)): 100%; splicing in kidney ([3]; 400 mg/kg/day): no significant changes in splicing; splicing in brain ([3]; 400 mg/kg/day, 8 days of treatment): no significant change; normal IKBKAP mRNA in peripheral blood [7]: increased normal IKBKAP mRNA in peripheral blood
FC1(F)CC(COc2nc3c(NCc4nccs4)nc(Cl)nc3[nH]2)C1 [(362)] | 0.22 µM | 250% | 63.8% | 105% | 
Clc1nc(NCc2ccco2)c2nn[nH]c2n1 [(285)] | 6.78 µM | 115% | 0.06% | 1.46% | 
